ChEMBL document CHEMBL1687908, “Discovery of sulfated sterols from marine invertebrates as a new class of marine natural antagonists of farnesoid-X-receptor” (J Med Chem, 2011)
The source made the active and inactive calls. The rule behind the calls is not given here.

How the values were obtained:
Format in all cases: functional, cell-based
[1] = system: HepG2; assay: Inhibition of CDCA-induced FXR expression in human HepG2 cells after 18 hrs by luminometric analysis
[2] = molecular target: T1, Bile acid receptor (Homo sapiens) (UniProt Q96RI1); assay: Antagonist activity at FXR in human HepG2 cells assessed as inhibition of CDCA-induced OSTalpha gene expression at 50 uM by real time PCR
T1 sequence (whole entry): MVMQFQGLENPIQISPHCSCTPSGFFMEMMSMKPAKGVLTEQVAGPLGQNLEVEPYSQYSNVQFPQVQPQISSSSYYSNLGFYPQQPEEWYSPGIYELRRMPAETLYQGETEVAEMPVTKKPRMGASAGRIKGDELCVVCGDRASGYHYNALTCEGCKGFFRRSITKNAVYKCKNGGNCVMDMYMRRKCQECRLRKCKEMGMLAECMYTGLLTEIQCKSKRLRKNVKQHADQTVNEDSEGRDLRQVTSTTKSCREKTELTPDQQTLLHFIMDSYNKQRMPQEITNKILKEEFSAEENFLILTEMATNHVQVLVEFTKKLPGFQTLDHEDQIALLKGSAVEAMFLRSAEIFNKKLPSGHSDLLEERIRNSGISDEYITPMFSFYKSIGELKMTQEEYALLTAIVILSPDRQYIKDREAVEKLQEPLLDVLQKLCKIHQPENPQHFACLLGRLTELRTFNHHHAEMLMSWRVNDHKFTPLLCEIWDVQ

[3] = molecular target: T1, Bile acid receptor (Homo sapiens); assay: Antagonist activity at FXR in human HepG2 cells assessed as inhibition of CDCA-induced BSEP gene expression at 50 uM by real time PCR
[4] = molecular target: T1, Bile acid receptor (Homo sapiens); assay: Antagonist activity at FXR in human HepG2 cells assessed as inhibition of CDCA-induced OSTbata gene expression at 50 uM by real time PCR
[5] = molecular target: T1, Bile acid receptor (Homo sapiens); assay: Antagonist activity at FXR in human HepG2 cells assessed as inhibition of CDCA-induced Cyp7A1 gene expression at 50 uM by real time PCR
[6] = molecular target: T1, Bile acid receptor (Homo sapiens); assay: Antagonist activity at FXR expressed in human HepG2 cells assessed as stabilization of the NCoR at the OSTalpha promoter at 50 uM after 18 hrs by chromatin immunoprecipitation

- inhibition [2]: Active
- inhibition [4]: Active
- inhibition [5]: Active
- Activity [6]: Active
Structure (SMILES): C[C@H](CO)[C@@H](C)CC[C@@H](COS(=O)(=O)O)[C@H]1CC[C@H]2[C@@H]3CC[C@@H]4[C@H](O)[C@H](OS(=O)(=O)O)CC[C@]4(C)[C@H]3CC[C@]12C
- inhibition [1]: Dose-dependent effect
- inhibition [3]: Active
